According to PubChem BioAssay (NCI):
Values joined by “and” are separate entries in the source; they are usually repeats but may differ in a detail not shown here. Equal entries are not always repeated.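 The compound was tested at five concentrations on cells cultured in 96-well plates, with a 48-hour exposure period. GI50 marks 50% less growth. TGI: concentration producing complete growth inhibition.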

Tests used:
Assay in all cases: NCI-60 cell line screen, 48 h
SN12C renal = test system: SN12C renal
A498 renal = test system: A498 renal
BT-549 breast = test system: BT-549 breast
NCI-H460 lung = test system: NCI-H460 lung
HT29 colon = test system: HT29 colon
MDA-MB-231 breast = test system: MDA-MB-231 breast
K-562 leukemia = test system: K-562 leukemia
TK-10 renal = test system: TK-10 renal
OVCAR-8 ovarian = test system: OVCAR-8 ovarian
RPMI-8226 leukemia = test system: RPMI-8226 leukemia
UACC-62 melanoma = test system: UACC-62 melanoma
UO-31 renal = test system: UO-31 renal
SW-620 colon = test system: SW-620 colon
SF-539 CNS = test system: SF-539 CNS
HL-60(TB) leukemia = test system: HL-60(TB) leukemia
OVCAR-4 ovarian = test system: OVCAR-4 ovarian
SK-MEL-2 melanoma = test system: SK-MEL-2 melanoma
OVCAR-3 ovarian = test system: OVCAR-3 ovarian
HCT-116 colon = test system: HCT-116 colon
HS 578T breast = test system: HS 578T breast
SF-295 CNS = test system: SF-295 CNS
RXF 393 renal = test system: RXF 393 renal
SR leukemia = test system: SR leukemia
HOP-92 NSCLC = test system: HOP-92 NSCLC
MOLT-4 leukemia = test system: MOLT-4 leukemia
786-0 renal = test system: 786-0 renal
HOP-62 NSCLC = test system: HOP-62 NSCLC
SK-OV-3 ovarian = test system: SK-OV-3 ovarian
SK-MEL-28 melanoma = test system: SK-MEL-28 melanoma
EKVX NSCLC = test system: EKVX NSCLC
MDA-MB-435 = test system: MDA-MB-435
SNB-19 CNS = test system: SNB-19 CNS
CAKI-1 renal = test system: CAKI-1 renal
IGROV1 ovarian = test system: IGROV1 ovarian
SNB-75 CNS = test system: SNB-75 CNS
NCI/ADR-RES ovarian = test system: NCI/ADR-RES ovarian
T-47D breast = test system: T-47D breast
KM12 colon = test system: KM12 colon
NCI-H226 lung = test system: NCI-H226 lung
LOX IMVI melanoma = test system: LOX IMVI melanoma
SF-268 CNS = test system: SF-268 CNS
DU-145 prostate = test system: DU-145 prostate
PC-3 prostate = test system: PC-3 prostate
UACC-257 melanoma = test system: UACC-257 melanoma
MCF7 breast = test system: MCF7 breast
CCRF-CEM leukemia = test system: CCRF-CEM leukemia
OVCAR-5 ovarian = test system: OVCAR-5 ovarian
NCI-H23 lung = test system: NCI-H23 lung
SK-MEL-5 melanoma = test system: SK-MEL-5 melanoma
HCC-2998 colon = test system: HCC-2998 colon
MALME-3M melanoma = test system: MALME-3M melanoma
NCI-H522 lung = test system: NCI-H522 lung
COLO 205 colon = test system: COLO 205 colon
M14 melanoma = test system: M14 melanoma
HCT-15 colon = test system: HCT-15 colon
ACHN renal = test system: ACHN renal
A549 NSCLC = test system: A549 NSCLC

What does the source list for `CN1C(=O)[C@]23SSC1(C)C(=O)N2[C@H]1Nc2ccccc2C1([C@@]12c4ccccc4N[C@@H]1N1C(=O)C4(C)SS[C@]1(C(=O)N4C)[C@H]2O)[C@@H]3O` (stereo partly specified)?
GI50 (SN12C renal): 107 nM and 407 nM; TGI (SN12C renal): 1170 nM and 1910 nM; GI50 (A498 renal): 384 nM and 2330 nM; TGI (A498 renal): 678 nM and 3810 nM; GI50 (BT-549 breast): 218 nM and 1490 nM; TGI (BT-549 breast): 486 nM and 2970 nM; GI50 (NCI-H460 lung): 129 nM and 326 nM; TGI (NCI-H460 lung): 1490 nM and 1140 nM; GI50 (HT29 colon): 27.6 nM and 187 nM; TGI (HT29 colon): 86.5 nM and 454 nM; GI50 (MDA-MB-231 breast): 54.9 nM and 321 nM; TGI (MDA-MB-231 breast): 184 nM and 827 nM; GI50 (K-562 leukemia): 39.7 nM and 84.7 nM; TGI (K-562 leukemia): 2880 nM and 10500 nM; GI50 (TK-10 renal): 54.5 nM and 503 nM; TGI (TK-10 renal): 128 nM and 906 nM; GI50 (OVCAR-8 ovarian): 34.8 nM and 165 nM; TGI (OVCAR-8 ovarian): 75.1 nM and 359 nM; GI50 (RPMI-8226 leukemia): 53.6 nM and 257 nM; TGI (RPMI-8226 leukemia): 221 nM and 882 nM; GI50 (UACC-62 melanoma): 137 nM and 420 nM; TGI (UACC-62 melanoma): 398 nM and 1820 nM; GI50 (UO-31 renal): 45.2 nM and 192 nM; TGI (UO-31 renal): 122 nM and 367 nM; GI50 (SW-620 colon): 66.7 nM and 144 nM; TGI (SW-620 colon): 434 nM and 660 nM; GI50 (SF-539 CNS): 68.7 nM and 277 nM; TGI (SF-539 CNS): 264 nM and 762 nM; GI50 (HL-60(TB) leukemia): 235 nM and 254 nM; TGI (HL-60(TB) leukemia): 782 nM and 1530 nM; GI50 (OVCAR-4 ovarian): 30.2 nM and 164 nM; TGI (OVCAR-4 ovarian): 73.1 nM and 322 nM; GI50 (SK-MEL-2 melanoma): 265 nM and 718 nM; TGI (SK-MEL-2 melanoma): 540 nM and 2160 nM; GI50 (OVCAR-3 ovarian): 20.2 nM and 183 nM; TGI (OVCAR-3 ovarian): 57.1 nM and 426 nM; GI50 (HCT-116 colon): 55.8 nM and 97.4 nM; TGI (HCT-116 colon): 229 nM and 556 nM; GI50 (HS 578T breast): 465 nM and 1580 nM; TGI (HS 578T breast): 1730 nM and 5400 nM; GI50 (SF-295 CNS): 275 nM and 2380 nM; TGI (SF-295 CNS): 555 nM and 4690 nM; GI50 (RXF 393 renal): 33 nM and 170 nM; TGI (RXF 393 renal): 65.7 nM and 318 nM; GI50 (SR leukemia): 46.5 nM and 210 nM; TGI (SR leukemia): 417 nM and 1070 nM; GI50 (HOP-92 NSCLC): 307 nM and 302 nM; TGI (HOP-92 NSCLC): 640 nM and 674 nM; GI50 (MOLT-4 leukemia): 65.3 nM and 214 nM; TGI (MOLT-4 leukemia): 590 nM and 1370 nM; GI50 (786-0 renal): 44.8 nM and 185 nM; TGI (786-0 renal): 108 nM and 363 nM; GI50 (HOP-62 NSCLC): 219 nM and 1400 nM; TGI (HOP-62 NSCLC): 576 nM and 3300 nM; GI50 (SK-OV-3 ovarian): 293 nM and 1670 nM; TGI (SK-OV-3 ovarian): 751 nM and 4050 nM; GI50 (SK-MEL-28 melanoma): 33.9 nM and 187 nM; TGI (SK-MEL-28 melanoma): 76.6 nM and 419 nM; GI50 (EKVX NSCLC): 64.4 nM and 606 nM; TGI (EKVX NSCLC): 504 nM and 3690 nM; GI50 (MDA-MB-435): 96.7 nM and 265 nM; TGI (MDA-MB-435): 413 nM and 804 nM; GI50 (SNB-19 CNS): 455 nM and 1330 nM; TGI (SNB-19 CNS): 1580 nM and 4340 nM; GI50 (CAKI-1 renal): 48.8 nM and 154 nM; TGI (CAKI-1 renal): 170 nM and 396 nM; GI50 (IGROV1 ovarian): 238 nM and 290 nM; TGI (IGROV1 ovarian): 570 nM and 864 nM; GI50 (SNB-75 CNS): 209 nM and 1960 nM; TGI (SNB-75 CNS): 544 nM and 3500 nM; GI50 (NCI/ADR-RES ovarian): 121 nM and 549 nM; TGI (NCI/ADR-RES ovarian): 588 nM and 3740 nM; GI50 (T-47D breast): 22 nM and 184 nM; TGI (T-47D breast): 89.9 nM and 595 nM; GI50 (KM12 colon): 140 nM and 1210 nM; TGI (KM12 colon): 478 nM and 3410 nM; GI50 (NCI-H226 lung): 290 nM; TGI (NCI-H226 lung): 807 nM; GI50 (LOX IMVI melanoma): 30.9 nM and 165 nM; TGI (LOX IMVI melanoma): 70.8 nM and 394 nM; GI50 (SF-268 CNS): 309 nM and 1960 nM; TGI (SF-268 CNS): 1260 nM and 5580 nM; GI50 (DU-145 prostate): 46.1 nM and 299 nM; TGI (DU-145 prostate): 208 nM and 1440 nM; GI50 (PC-3 prostate): 185 nM and 662 nM; TGI (PC-3 prostate): 720 nM and 3010 nM; GI50 (UACC-257 melanoma): 34.8 nM and 208 nM; TGI (UACC-257 melanoma): 94.3 nM and 488 nM; GI50 (MCF7 breast): 10.7 nM and 45.7 nM; TGI (MCF7 breast): 223 nM and 1220 nM; GI50 (CCRF-CEM leukemia): 73.9 nM and 203 nM; TGI (CCRF-CEM leukemia): 1560 nM and 2210 nM; GI50 (OVCAR-5 ovarian): 360 nM and 1440 nM; TGI (OVCAR-5 ovarian): 756 nM and 4210 nM; GI50 (NCI-H23 lung): 37.4 nM; TGI (NCI-H23 lung): 101 nM; TGI (SK-MEL-5 melanoma): 242 nM and 2010 nM; GI50 (HCC-2998 colon): 79.1 nM and 567 nM; TGI (HCC-2998 colon): 297 nM and 1940 nM; GI50 (MALME-3M melanoma): 22.7 nM and 50.5 nM; TGI (MALME-3M melanoma): 53.9 nM and 184 nM; GI50 (NCI-H522 lung): 28.8 nM and 179 nM; TGI (NCI-H522 lung): 61.9 nM and 395 nM; GI50 (COLO 205 colon): 28.3 nM and 153 nM; TGI (COLO 205 colon): 61.3 nM and 395 nM; GI50 (M14 melanoma): 48.2 nM and 175 nM; TGI (M14 melanoma): 163 nM and 451 nM; GI50 (HCT-15 colon): 21.7 nM and 143 nM; GI50 (ACHN renal): 37.1 nM and 57.7 nM; TGI (ACHN renal): 100 nM and 508 nM; TGI (A549 NSCLC): 1100 nM and 6850 nM
